{
  "source": "patent US20110091473A1",
  "about": "“NOVEL ANTIBODY THERAPIES” (GENMAB A/S, priority 2007, published 2011)",
  "tested_on": "RAJI cells",
  "test": "Rituximab-induced ADCC of RAJI cells, 51Cr-release assay with PBMC",
  "type": "cell-based, human",
  "details": "for EC50 for rituximab-mediated ADCC: E:T 100:1",
  "procedure": "In the antibody-dependent cellular cytotoxicity (ADCC) assay target B cells are labelled with radioactive chromium (^51Cr), and incubated with antibody and effector cells. Upon lysis the target cells release ^51Cr which can be measured by separation of the supernatant from the cells and quantification using a scintillation counter.\nRAJI cells (obtained from ECACC, Porton Down, United Kingdom) served as target cells, and were cultured in RPMI 1640 supplemented with 10% heat-inactivated cosmic calf serum (CCS), 1 U/ml penicillin, 1 μg/ml streptomycin, and 4 mM L-glutamine (all from Invitrogen, Carlsbad, Calif.). RAJI cells were either non-treated or cholesterol-depleted using lovastatin (10 μM) as described in Example 3, and re-suspended in test medium to a concentration of 2×10^6 viable cells/ml.\nRAJI cells were labeled with 20 μCi^51Cr (Amersham Biosciences, Uppsala, Sweden) for 2 hours. After extensive washing in medium, the cells were adjusted to 2×10^5 cells/ml. […] Assays were started by adding ^51Cr-labeled RAH cells (50 μl) giving a final volume of 200 >l. For isolated effector cells, containing 20% NK cells, an effector to target (E:T) ratio of 100:1 was used. After incubation (4 hours, 37° C.), assays were stopped by centrifugation, and ^51Cr release from triplicates was measured in counts per minute (cpm) in a scintillation counter. Percentage of cellular cytotoxicity was calculated using the following formula:\n% specific lysis=(experimental cpm−basal cpm)/(maximal cpm−basal cpm)×100\nwith maximal ^51Cr release determined by adding TritonX-100 (5% final concentration) to target cells, and basal release measured in the absence of sensitizing antibodies and effector cells.",
  "data": [
    {"substance": "rituximab: anti-CD20 antibody Rituxan/MabThera, type I", "values": [
      {"measurement": "EC50 for rituximab-mediated ADCC", "setting": "control (non-treated) RAJI cells", "value": 0.024, "unit": "µg/mL"},
      {"measurement": "EC50 for rituximab-mediated ADCC", "setting": "lovastatin-treated (10 μM) RAJI cells", "value": 0.082, "unit": "µg/mL"},
      {"measurement": "increase of EC50 for rituximab-mediated ADCC", "setting": "lovastatin-treated vs control cells", "value": "~4", "unit": "fold"}
    ]}
  ]
}
